Common to all, as to assay type: cell-based
Assay [1] has as its system IFN-γ production (IFN−γ産生). The assay can be described thus: 薬理試験6 IFN−γ産生抑制作用 (inhibition of IFN-γ production, human whole blood). The settings on record: concanavalin A (ConA), 37℃, 48 h, ELISA.
Assay [2] has as its system IL-6 production (IL−6産生). The assay can be described thus: 薬理試験5 IL−6産生抑制作用 (inhibition of IL-6 production, human whole blood). The settings on record: same method as pharmacological test 3 (human whole blood, LPS, 37℃, 24 h).
Assay [3] deals with IL-1 production (IL−1産生). The assay can be described thus: 薬理試験4 IL−1産生抑制作用 (inhibition of IL-1 production, human whole blood). The settings on record: same method as pharmacological test 3 (human whole blood, LPS, 37℃, 24 h).

As a reminder, the IC50 is the point on the concentration scale where inhibition reaches its midpoint.

With `CCOc1ccc(-c2nc(-c3cccc(C(=O)O)n3)cs2)cc1OCC` [実施例2], the half-inhibitory concentration (IC50) was 5 µM in assay [1], at least 100 µM in assay [2] and 80 µM in assay [3].

(Values after JP2006083192A, “サイトカイン異常産生又は接着作用の亢進に伴う疾患を予防又は治療するための薬剤” (Otsuka Pharmaceutical Co Ltd, priority 1996, dated 1998).)
